Laboratory results as given in patent US12421522B2, “Modulation of transgene expression in plants” (CORTEVA AGRISCIENCE LLC, priority 2016, dated 2025).

Legend:
soybean tissues [1] = experiment: miRNA expression profiling of miR1512 and miR3522 in soybean tissues; conditions: for relative expression level, 3 mm seed: soybean 3 mm seed; for relative expression level, Cotyledons: soybean cotyledons; for relative expression level, Embryo axis: soybean embryo axis; for relative expression level, Flower: soybean flower; for relative expression level, Pods from 5 mm seeds: soybean pods from 5 mm seeds; for relative expression level, Root tip: soybean root tip; for relative expression level, Seed coat: soybean seed coat; for relative expression level, Stem: soybean stem
Experimental: Small RNA Library Construction and Sequencing: Small RNA library construction was carried out using Illumina's TruSeq Small RNA sample preparation kit according to the manufacturer's recommendations. Briefly, RNA 3′ and RNA 5′ adapters were sequentially ligated onto 1 μg of high-quality purified Small RNA sample using truncated T4 RNA Ligase 2 and T4 RNA Ligase respectively. The small RNA fragments were then copied into first strand cDNA using SuperScript II reverse transcriptase. The cDNA was converted into double stranded cDNA (ds cDNA) with PCR using two primers that respectively anneal to the ends of 3′ and 5′ adapters. This process selectively enriches those fragments that have adapter molecules on both ends. The amplified cDNA construct is then purified on a 6% PAGE gel, normalized to 2 nM concentration, denatured with sodium hydroxide, and diluted in hybridization buffer for loading onto a Hiseq flow cell. Cluster generation, primer hybridization and sequencing reactions were carried out according to Illumina's recommended protocol.
Given the variation in expression among different soybean tissues, miR1512 and miR3522 recognition sites were selected to exemplify tissue-specific transgene expression modulation in a dicot plant.
Table 1. miRNA microarray expression profiling of miR1512 and miR3522 in soybean tissues. Numbers represent relative expression levels.

soybean tissues [2] = experiment: as above; conditions: for relative expression level, 5 mm seed: soybean 5 mm seed; for relative expression level, Hypocotyl: soybean hypocotyl; for relative expression level, Leaf: soybean leaf; for relative expression level, Pod: soybean pod; for relative expression level, Root: soybean root

miR1512: endogenous soybean micro-RNA, exemplary miR1512 RNA UAACUGAACAUUCUUAGAGCAU (expressed or natural sequence)
relative expression level, 3 mm seed (soybean tissues [1]): 10427 | relative expression level, Cotyledons (soybean tissues [1]): 70 | relative expression level, Embryo axis (soybean tissues [1]): 20 | relative expression level, Flower (soybean tissues [1]): 79 | relative expression level, Pods from 5 mm seeds (soybean tissues [1]): 23938 | relative expression level, Root tip (soybean tissues [1]): 3118 | relative expression level, Seed coat (soybean tissues [1]): 13532 | relative expression level, Stem (soybean tissues [1]): 15 | miRNA expression (in words) (soybean tissues [2]; leaves and other vegetative tissue): very low expression | miRNA expression (in words) (soybean tissues [2]; root): medium expression | miRNA expression (in words) (soybean tissues [2]; seed and seed coat): high levels | relative expression level, 5 mm seed (soybean tissues [2]): 183 | relative expression level, Hypocotyl (soybean tissues [2]): 0 | relative expression level, Leaf (soybean tissues [2]): 0 | relative expression level, Pod (soybean tissues [2]): 1854 | relative expression level, Root (soybean tissues [2]): 0

miR3522: endogenous soybean micro-RNA, exemplary miR3522 RNA UGAGACCAAAUGAGCAGCUGA (expressed or natural sequence)
relative expression level, 3 mm seed (soybean tissues [1]): 8958 | relative expression level, Cotyledons (soybean tissues [1]): 26265 | relative expression level, Embryo axis (soybean tissues [1]): 3200 | relative expression level, Flower (soybean tissues [1]): 18509 | relative expression level, Pods from 5 mm seeds (soybean tissues [1]): 1351 | relative expression level, Root tip (soybean tissues [1]): 649 | relative expression level, Seed coat (soybean tissues [1]): 2551 | relative expression level, Stem (soybean tissues [1]): 3180 | miRNA expression (in words) (soybean tissues [2]; all tissues examined except the root tissue): high or medium levels | relative expression level, 5 mm seed (soybean tissues [2]): 30139 | relative expression level, Hypocotyl (soybean tissues [2]): 1310 | relative expression level, Leaf (soybean tissues [2]): 15350 | relative expression level, Pod (soybean tissues [2]): 405 | relative expression level, Root (soybean tissues [2]): 399
